Results as given in patent publication US11731946B2, “Broad spectrum antivirulence, anti-persistence compounds” (priority 2017, dated 2023).

Assays:
MvfR regulon [1] = assay: Quantification of pyocyanin (OD520nm of chloroform-extracted cultures); assay type: cell-based, P. aeruginosa; conditions: for IC50 / activity at 50 µM / activity at 1 µM / activity at 10 µM: Pseudomonas aeruginosa; for IC50: read-out: IC50 pyocyanin (μM); for activity at 50 µM: read-out: pyocyanin @50 uM (%), compound at 50 uM; for activity at 1 µM: read-out: pyocyanin @1 uM (%), compound at 1 uM; for activity at 10 µM: read-out: pyocyanin @10 uM (%), compound at 10 uM
MvfR regulon [2] = assay: pqsA gene expression (pqsA-GFP reporter); assay type: cell-based, P. aeruginosa; conditions: for IC50 / activity at 50 µM / activity at 10 µM: Pseudomonas aeruginosa; for IC50: read-out: IC50 pqsA (μM); for activity at 50 µM: read-out: pqsA @50 uM (%), compound at 50 uM; for activity at 10 µM: read-out: pqsA @10 uM (%), compound at 10 uM
MvfR regulon [3] = assay: LC/MS quantification of HAQs and related molecules in bacterial culture supernatants; assay type: cell-based, P. aeruginosa; conditions: Pseudomonas aeruginosa
MvfR = biological target: T1, MvfR (Pseudomonas aeruginosa, UniProt Q9I4X0); assay: Surface plasmon resonance (SPR) binding to purified MvfR co-inducer binding domain; set-up: species or system P. aeruginosa; conditions: SPR
T1 construct: made in house
Method: Compounds identified to interfere with MvfR were confirmed for the direct physical interaction with this protein. Using SPR, the percentage of compound's binding to the purified MvfR protein was analyzed and used to determine the binding parameters (KD, kon and koff)—thus determining the kinetic of interaction with MvfR.
The recombinant MvfR co-inducer binding domain was purified using Ni-NTA chromatography, as previously reported (see e.g., Xiao et al, Microbiology, 2006, 152:1679-1686; Starkey et al, PLoS Pathog. 2014, 10:e1004321; and Kefala et al, Acta. Crystallogr. Sect. F. Struct. Biol. Cryst. Commun. 2012, 68:695-697). The purified protein was immobilized with the amine coupling method at a target level of 5000 RU on Chip. SPR was performed according to previously reported procedures (see e.g., Starkey et al, PLoS Pathog. 2014, 10:e1004321; Maura et al, ACS Chemical Biology, 2017, 12:1435-1443; and Kitao et al, MBIO, in press). […] Table 3 lists the steady-state KD data measured by SPR.

[4] = Steady State Binding Affinity KD (μM), steady state
[5] = Steady State Binding Affinity KD [M], steady state
[6] = compound at 50 uM, listed as G1

T1 sequence (Q9I4X0 91-332): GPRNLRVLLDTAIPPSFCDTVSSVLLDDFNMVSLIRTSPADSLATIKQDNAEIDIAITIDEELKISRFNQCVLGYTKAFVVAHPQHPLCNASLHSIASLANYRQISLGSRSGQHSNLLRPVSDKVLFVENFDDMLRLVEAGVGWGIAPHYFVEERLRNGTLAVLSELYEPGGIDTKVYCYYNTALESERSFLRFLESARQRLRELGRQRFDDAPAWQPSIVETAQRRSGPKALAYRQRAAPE

Compound | activity at 50 µM (MvfR regulon [1]) [%] | activity at 50 µM (MvfR regulon [2]) [%] | activity at 50 µM (MvfR regulon [3]; read-out: 2-AA @50 uM) [%] | activity at 50 µM (MvfR regulon [3]; read-out: AA @50 uM) [%] | activity at 50 µM (MvfR regulon [3]; read-out: DHQ @50 uM) [%] | activity at 50 µM (MvfR regulon [3]; read-out: HHQ @50 uM (%)) [%] | activity at 50 µM (MvfR regulon [3]; read-out: HQNO @50 uM (%)) [%] | activity at 50 µM (MvfR regulon [3]; read-out: PQS @50 uM (%)) [%] | activity at 10 µM (MvfR regulon [2]) [%] | other results
Cc1cc(F)ccc1NCC(=O)Nc1ccc(C#N)cc1 [Compound 1] | 66.8 | 32.4 | 101 | 100 | 135 | 2.67 | 17 | 10.5 | – | IC50 (MvfR regulon [1]): 70.6 µM; IC50 (MvfR regulon [2]): 20.2 µM; IC50 (MvfR regulon [3]; PA14, read-out: IC50 HHQ (μM)): 10.4 µM; IC50 (MvfR regulon [3]; PA14, read-out: IC50 PQS (μM)): 15.1 µM; IC50 (MvfR regulon [3]; read-out: IC50 HQNO (μM)): 20.3 µM; Signal Intensity Rmax (MvfR): 23.41; Kd (MvfR; [4]): 9.18 µM; Kd (MvfR; [5]): 9.19 µM
O=C(CC(=O)Nc1ccc([N+](=O)[O-])cc1)Nc1ccc(Oc2ccccc2)cc1 [Compound 73] | 5.9 | 8.9 | – | – | – | – | – | – | 1.95 | IC50 (MvfR regulon [1]): 0.398 µM; activity at 1 µM (MvfR regulon [1]): 9.2%; activity at 10 µM (MvfR regulon [1]): 5.2%; IC50 (MvfR regulon [2]): 0.21 µM; Signal Intensity Rmax (MvfR): 33.31; Kd (MvfR; [4]): 0.755 µM; Kd (MvfR; [5]): 0.755 µM
N#Cc1ccc(NC(=O)CC(=O)Nc2ccc(C#N)c(Cl)c2)cc1 [Compound 110] | 4.12 | 5.61 | – | – | – | – | – | – | 1.75 | activity at 1 µM (MvfR regulon [1]): 64.7%; activity at 10 µM (MvfR regulon [1]): 6.8%; Kd (MvfR; mean KD value, mean over the compounds named): 0.25 µM
Cc1cc(F)ccc1OCC(=O)Nc1ccc(F)cc1 [Compound 8] | 91.1 | 78 | 71.7 | – | 67.8 | 83.5 | 94 | 94.7 | – | –
Cc1cc(F)ccc1CCNC(=O)c1ccc(C#N)cc1 [Compound 51] | 110 | 91.4 | 106 | 68 | 95.5 | 96.2 | 102 | 93.5 | – | –
CS(=O)(=O)CNc1ccc(NC(=O)CC(=O)Nc2ccc(C#N)cc2)cc1 [Compound 70] | 99.7 | 131 | 94.8 | 117 | 80 | 130 | 98.3 | 115 | 94.7 | –
N#Cc1ccc(NC(=O)CC(=O)Nc2ccc(C(=O)C(F)(F)F)cc2)cc1 [Compound 64] | 84 | 102 | 140 | 176 | 88.8 | 107 | 103 | 104 | 107 | –
Cc1cc(F)ccc1NCC(=O)Nc1cccc(C#N)c1 [Compound 2] | – | – | 122 | – | – | 100 | 101 | 109 | – | pyocyanin @50 uM (%) (MvfR regulon [1]; [6]): 102.49%; pqsA @50 uM (%) (MvfR regulon [2]; [6]): 84.13%
N#Cc1ccc(NC(=O)CNC(=O)c2ccc(F)cc2)cc1 [Compound 58] | 94 | 70.7 | 86.6 | 32.3 | 89.8 | 77.8 | 85.9 | 85.1 | 11 | –
Cc1cc(F)ccc1NCC(=O)Nc1ccccc1C#N [Compound 4] | 113 | 95.9 | 123 | – | – | 99.2 | 111 | 122 | – | –
N#Cc1ccc(NC(=O)CCNc2ccc(F)cc2F)cc1 [Compound 47] | 88.3 | 74.3 | 100 | 129 | 99.3 | 109 | 101 | 108 | – | –
Cc1ccccc1N(C)CC(=O)Nc1ccc(C#N)cc1 [Compound 12] | 96 | 95.7 | 63.1 | – | 51.5 | 73.4 | 91.2 | 95.5 | – | –
Cc1cc(F)ccc1N1CCCC(NC(=O)c2ccc(C#N)cc2)C1 (stereo not shown) [Compound 50] | 108 | 89.9 | 101 | 54.5 | 84.2 | 98.5 | 100 | 96.1 | – | –
N#Cc1ccc(NC(=O)CCC(=O)Nc2ccc(F)cc2)cc1 [Compound 61] | 99 | 77.8 | 93.6 | 42.4 | 93 | 79 | 85.5 | 87.2 | 112 | –
N#Cc1ccc(NC(=O)CC(=O)Nc2ccc(NC(=O)C(F)(F)F)cc2)cc1 [Compound 69] | 93.8 | 84.9 | 117 | 82.4 | 108 | 103 | 101 | 101 | 94.2 | –
N#Cc1ccc(NC(=O)CCNc2ccc(F)cc2)cc1 [Compound 46] | 90.8 | 79.6 | 113 | 101 | 99.5 | 97 | 95.8 | 97.2 | – | –
N#Cc1ccc(NC(=O)C(=O)Nc2ccc(F)cc2)cc1 [Compound 49] | 106 | 96.9 | 103 | 89.8 | 105 | 97.9 | 99.5 | 110 | – | –
Cc1cc(F)ccc1NC(=O)Cc1ccc(C#N)cc1 [Compound 52] | 115 | 95.7 | 113 | 80.7 | 84.9 | 102 | 109 | 99.8 | – | –
